By IC50 is commonly meant the concentration that gives 50% inhibition. The term Hill slope denotes the slope factor of the fitted curve. As usually defined, the Papp B→A is the apparent permeability from the basolateral to the apical side of a cell layer. The term EC50 denotes the concentration needed to bring the measured effect to its halfway point. A word on the efflux ratio: it is the permeability from basolateral to apical divided by that in the opposite direction, in the common usage. As usually defined, the Papp A→B is how fast a substance crosses the layer from the apical side. For orientation: half-life means the time in which the quantity being followed falls by half.

Each structure is given as a SMILES string. Like-named read-outs stand apart in the source and are kept apart here.

For data set [1] the following is noted: microsomes, 0.75 h, 10 µM, pH 7.4.
For data set [2], the target named is SARS-CoV-2 nsp14 MTase (Severe acute respiratory syndrome coronavirus 2, UniProt P0DTD1). Nature of the data set: biochemical. The format is biochemical. The following applies: for Hill slope: Table S1, dose-response curve, variable slope model.
For data set [3] the following is noted: 120 min, 10 μM.
The subject of data set [4] is Caco-2 monolayers. The experiment in a line: in vitro. To be noted: Caco-2. The method, then:
(§1) 3.5. Caco-2 permeability assay
(§2) Transepithelial bi-directional transport of compounds (10 µM, pH 7.4/7.4) was tested on 21-day differentiated Caco-2 monolayers. Briefly, the cells were seeded at a density of 67 ,500 cells per 96-well plate insert (Millicell®, Merck KGaA, Darmstadt, Germany). They were left to differentiate for 21 days with medium exchange every 2–3 days. Prior to the experiment, the medium from both apical and basolateral well was exchanged for HBSS buffer (containing 10 mM HEPES and 25 mM glucose) and left to equilibrate for 30 min. Compound permeability was assayed by replacing pure HBSS with HBSS containing 10 μM compounds and 220 μM Lucifer yellow (LY) solution in an apical insert (A to B transport) or in a basolateral well (B to A transport). The tre ated cells were then returned to the incubator for 2 h at 37 °C. After that, samples were collected from both apical inserts and basolateral wells and analyzed using LC -MS/MS (SCIEX Triple Quad™ 7500 QTRAP® Ready). LC separation was done on Synergi 4µm Fusion 50 × 2 mm column (Phenomenex) using a water/acetonitrile gradient with 0.1% formic acid starting from 2 to 98% for 4.5 min.
(§3) The apparent permeability coefficient (Papp) was calculated from t he following equation: Papp = (dQ / dt) / C0 * A, where dQ/dt is the rate of absorption of the drug across the cells, C0 is the donor compartment concentration at time zero, and A is the area of the monolayer. Efflux ratio was expressed as (Papp B -A) / (Papp A-B). Recovery (%) was determined as (total compound mass i n donor and receiver compartments at the end of the incubation / initial compound mass in the donor compartment) x 100. The data represent means ± SD of two independent experiments performed in triplicate. […]
(§4) were used as control compounds.

A short description of data set [5]: in vitro. The following applies: human; for Papp B→A at 2 h, 10 µM / Papp A→B at 2 h, 10 µM: Caco-2, pH 7.4; for efflux ratio at 2 h, 10 µM: Caco-2. The method, then: as §1, §2, §3, §4
A general note: Passage across Caco-2 layers is used to estimate intestinal permeability.

Data set [6] relates to SARS-CoV-2 strain hCoV-19/Czech Republic/NRL_6632_2/2020. The experiment in a line: microbe, parasite or virus in culture. The format is cell-based. To be noted: Calu-3 cell line.
Data set [7] in a line: in vitro. The following applies: human.
The target of data set [8] is human RNMT (Homo sapiens, UniProt O43148). The experiment in a line: Off-target inhibition of human RNMT. The following applies: for inhibitory activity against RNMT: 25 μM concentration of inhibitor. The format is biochemical. From the text:
Human cells rely on several MTases; therefore, it is necessary to assess the possible off-target effect. […]

The conditions of data set [9]: 120 min, 10 μM. The source holds these as a separate data set.
For data set [10] the following is noted: microsomes, 0.75 h, 10 µM, pH 7.4. This is another data set of the same source.
A short description of data set [11]: in vitro. The following applies: mouse, plasma.
The mark [12] stands for this setting: Table 1 and text, N.I., no inhibition, read-out: IC50.
Where [13] appears, read: Severe acute respiratory syndrome coronavirus 2, 72 h, MOI ∼0.01, 3 days, read-out: EC50 (antiviral effect).

human RNMT, sequence (O43148 whole entry): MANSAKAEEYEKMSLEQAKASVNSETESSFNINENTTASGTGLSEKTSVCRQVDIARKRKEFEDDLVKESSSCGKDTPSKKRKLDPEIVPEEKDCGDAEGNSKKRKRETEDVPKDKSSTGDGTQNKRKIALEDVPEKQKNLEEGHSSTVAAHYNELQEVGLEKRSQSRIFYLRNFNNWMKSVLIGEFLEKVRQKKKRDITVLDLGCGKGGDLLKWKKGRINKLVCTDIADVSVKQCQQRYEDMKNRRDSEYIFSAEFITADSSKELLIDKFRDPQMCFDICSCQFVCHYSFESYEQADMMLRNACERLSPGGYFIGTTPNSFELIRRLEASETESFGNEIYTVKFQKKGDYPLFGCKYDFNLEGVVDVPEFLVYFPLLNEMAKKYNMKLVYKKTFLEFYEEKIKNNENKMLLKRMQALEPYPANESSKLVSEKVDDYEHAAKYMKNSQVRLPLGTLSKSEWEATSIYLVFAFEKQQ

In the case of `Cc1cc(=O)oc2cc(NC(=O)[C@H]3O[C@@H](n4cc(C#Cc5cncnc5)c5c(N)ncnc54)[C@H](O)[C@@H]3O)ccc12` [18l], the “Microsomal stability % of the parent compound after 45 min, Human” value (“Microsomal stability % … Human” for short) in [1] is 90 ± 4.2%. Moreover, the IC50 in data set [2] (setting [12]) was 0.031 ± 0.005 µM; in [8], over 25 µM. This compound also registered a Hill slope in data set [2] of -1.09. Besides, in data set [3], the “Plasma stability % of the parent compound after 120 min, Mouse” value (“Plasma stability % … Mouse” for short) is 89 ± 1.1%. The “Papp B-A” value in data set [4] came out at 8.3 ± 0.5 cm/s x 10-6. Moreover, in data set [5] (Caco-2, Recovery (%) A-B), the recovery at 2 h, 10 µM amounted to 87%. The apparent permeability from basolateral to apical (Papp B→A) at 2 h, 10 µM in data set [5] worked out at 8.3 ± 0.5 ×10⁻⁶ cm/s. Moreover, the EC50 in data set [6] (setting [13]) was determined as 12 ± 6 µM. This compound also gave a CC50 at 3 days in data set [7] of over 50 µM. Also, the “inhibitory activity against RNMT” value in data set [8] is listed as “None of the tested compounds exhibited any inhibitory activity”. Further, the “Plasma stability % of the parent compound after 120 min, Human” value (shortened to “Plasma stability % … Human”) in [9] is listed as 74 ± 0.2%. Further, in data set [10], the “Microsomal stability % of the parent compound after 45 min, Mouse” value (“Microsomal stability % … Mouse” below) was determined as 84 ± 2.5%.
On to `Cc1cc(=O)[nH]c2cc(NC(=O)[C@H]3O[C@@H](n4cc(C#Cc5cncnc5)c5c(N)ncnc54)[C@H](O)[C@@H]3O)ccc12` [18n], for which the “Microsomal stability % … Human” value in [1] was 90 ± 2.0%. The IC50 in [2] (setting [12]) was 0.043 ± 0.005 µM. Further, the Hill slope in [2] is -1.29. For the same compound, the IC50 in data set [2] (values printed in Fig. 3 (correlation with GlideScore XP), read-out: IC50) was 0.04 µM. Moreover, the “Plasma stability % … Mouse” value in data set [3] is recorded as 41 ± 0.7%. Moreover, in data set [4], the “Papp A-B” value was 11.3 ± 3.7 cm/s x 10-6 and the “Papp B-A” value turned out to be 7.3 ± 1.3 cm/s x 10-6. In addition, in data set [5], the efflux ratio at 2 h, 10 µM was determined as 0.6; the apical-to-basolateral permeability (Papp A→B) at 2 h, 10 µM is 11.3 ± 3.7 ×10⁻⁶ cm/s; the Papp B→A at 2 h, 10 µM was 7.3 ± 1.3 ×10⁻⁶ cm/s. Also, the recovery at 2 h, 10 µM in [5] (Caco-2, Recovery (%) A-B) was determined as 148%. In data set [5] (Caco-2, Recovery (%) B-A), the recovery at 2 h, 10 µM was found to be 110%. In addition, the half-maximal effective concentration (EC50) in data set [6] (setting [13]) stood at 10 ± 3 µM. In addition, the EC50 in [6] (Severe acute respiratory syndrome coronavirus 2, Table S3, read-out: EC50) stood at 9.8 µM. This compound also showed a CC50 at 3 days in data set [7] of over 50 µM. In data set [8], the “inhibitory activity against RNMT” value is on record as “None of the tested compounds exhibited any inhibitory activity”. The half-life at 2 h, 10 µM in [11] was 1.57 h. In addition, the “Plasma stability % … Human” value in data set [9] was determined as 93 ± 0.4%. For the same compound, in [10], the “Microsomal stability % … Mouse” value turned out to be 85 ± 0.6%.
Turning to `Cc1cc(=O)[nH]c2cc(N(C)C(=O)[C@H]3O[C@@H](n4cc(C#Cc5cncnc5)c5c(N)ncnc54)[C@H](O)[C@@H]3O)ccc12` [18q], in data set [1], the “Microsomal stability % … Human” value was 107 ± 6.6%. The IC50 in data set [2] (setting [12]) worked out at 0.89 ± 0.12 µM. Moreover, the Hill slope in data set [2] was -1.02. In data set [2] (Table S1, read-out: IC50 (inhibitory activity)), the concentration for half-maximal inhibition (IC50) is 0.891 µM. The “Plasma stability % … Mouse” value in data set [3] is given as 86 ± 0.9%. In [4], the “Papp A-B” value is listed as 2.0 ± 0.3 cm/s x 10-6 and the “Papp B-A” value is given as 2.1 ± 0.4 cm/s x 10-6. In addition, in data set [5], the efflux ratio at 2 h, 10 µM was 1; the Papp A→B at 2 h, 10 µM came out at 2 ± 0.3 ×10⁻⁶ cm/s; the Papp B→A at 2 h, 10 µM came out at 2.1 ± 0.4 ×10⁻⁶ cm/s. In addition, the recovery at 2 h, 10 µM in data set [5] (Caco-2, Recovery (%) A-B) came to 89%. For the same compound, the recovery at 2 h, 10 µM in data set [5] (Caco-2, Recovery (%) B-A) stood at 101%. Besides, in data set [6] (Severe acute respiratory syndrome coronavirus 2, read-out: EC50 (antiviral effect)), the concentration giving a half-maximal response (EC50) is over 50 µM. For the same compound, the “inhibitory activity against RNMT” value in data set [8] was “None of the tested compounds exhibited any inhibitory activity”. The “Plasma stability % … Human” value in data set [9] came to 80 ± 1.1%. In addition, the “Microsomal stability % … Mouse” value in data set [10] was determined as 117 ± 10.9%.
